From PubChem BioAssay (NCI)
Values joined by “and” are separate entries in the source; they are usually repeats but may differ in a detail not shown here. Equal values may be shown once.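 How tested: cells in 96-well plates exposed to compound for 48 hours at five concentrations. GI50 is the concentration that inhibits growth by half. Definition used: TGI = concentration required for complete inhibition of growth.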

How the values were obtained:
Experiment in all cases: DTP human tumour cell line panel, 48 h
[1] = test system: BT-549 breast
[2] = test system: CAKI-1 renal
[3] = test system: COLO 205 colon
[4] = test system: HL-60(TB) leukemia
[5] = test system: IGROV1 ovarian
[6] = test system: LOX IMVI melanoma
[7] = test system: MDA-N
[8] = test system: SF-295 CNS
[9] = test system: SF-539 CNS
[10] = test system: SN12C renal
[11] = test system: UACC-62 melanoma

Row | Structure (SMILES) | TGI [1] | TGI [2] | TGI [3] | TGI [4] | TGI [5] | TGI [6] | TGI [7] | TGI [8] | TGI [9] | TGI [10] | TGI [11] | GI50 [4] | GI50 [5] | GI50 [6] | GI50 [7] | GI50 [8] | GI50 [9]
1 | Cn1c2ccccc2n2c3nc4ccccc4nc3c(C#N)c12 | > 100 µM | > 100 µM | > 100 µM | > 100 µM | > 100 µM | > 100 µM | > 100 µM | > 100 µM | > 100 µM | > 100 µM | > 100 µM |  |  |  |  |  | 
2 | Fc1cccc2nc(-c3ccccc3)cc(OCc3ccccc3)c12 | > 100 µM |  | > 100 µM | > 100 µM | > 100 µM | > 100 µM | > 100 µM | > 100 µM |  | > 100 µM | > 100 µM |  |  |  |  |  | 
3 | CC1(C)N=C(N)N=C(N)N1c1cccc(CSc2ccccc2)c1 | > 100 µM | > 100 µM | 29.1 µM | 13.3 µM | 25 µM | > 100 µM | > 100 µM | > 100 µM | > 100 µM | > 100 µM | > 100 µM |  |  |  |  |  | 
4 | Cc1nc2ccccc2n1CCc1nc2ccccc2s1 | > 100 µM | > 100 µM | > 100 µM | 60.8 µM | > 100 µM | > 100 µM | > 100 µM | > 100 µM | > 100 µM | > 100 µM | > 100 µM |  |  |  |  |  | 
5 | O=c1[nH]cnc2c1ncn2[C@H]1CO[C@@H](CO)[C@@H]1O | > 100 µM | > 100 µM | > 100 µM |  | > 100 µM | > 100 µM | > 100 µM | > 100 µM | > 100 µM | > 100 µM | > 100 µM |  |  |  |  |  | 
6 | CN(C)CCOc1ccc(-c2c(Oc3ccc(Cl)cc3)c(=O)oc3ccccc23)cc1 | 28.3 µM | 39.6 µM | > 39 µM | > 100 µM | 19.2 µM | > 35.7 µM | 13.5 µM | > 25.7 µM | > 62.5 µM | > 43.6 µM | 32.1 µM |  |  |  |  |  | 
7 | CC1CC[C@]2(C(=O)O)CCC3(C)C(=C2[C@H]1C)C=CC1[C@@]2(C)CC[C@H](O)C(C)(C)C2CC[C@]13C (stereo not given in full) | > 100 µM | 84.1 µM | > 100 µM | > 100 µM | 98.2 µM | > 100 µM | > 100 µM | 47 µM | 50.9 µM | > 100 µM | > 100 µM |  |  |  |  |  | 
8 | CC1=Nn2c(nc3sc4c(c3c2=O)CCCC4)SC1 | > 100 µM | > 100 µM | > 100 µM | > 87.4 µM | > 100 µM | 53.7 µM | > 31.6 µM | > 100 µM | > 100 µM | > 100 µM | > 100 µM |  |  |  |  |  | 
9 | COc1ccc(N=C/C=C/Nc2ccc(OC)cc2)cc1 | 9.34 µM | 12.5 µM | 16.3 µM | 8.45 µM | 25.1 µM | 5.45 µM | 14.4 µM | 21.6 µM | 24.1 µM | 8.86 µM | 27.5 µM |  |  |  |  |  | 
10 | NNC(=O)c1ccccc1NC(=O)/C(=C/c1ccccc1)NC(=O)c1ccccc1 | > 100 µM | > 100 µM | > 100 µM | > 100 µM | > 100 µM | > 100 µM | > 100 µM | > 100 µM | > 100 µM | > 100 µM | > 100 µM |  |  |  |  |  | 
11 | COc1nc2c(c(=O)n1C)N[C@@H]1[C@@H](O)[C@H](O)CO[C@@H]1N2 | > 100 µM | > 100 µM | > 100 µM | > 100 µM | > 100 µM | > 100 µM | > 100 µM | > 100 µM | > 100 µM | > 100 µM | > 100 µM |  |  |  |  |  | 
12 | COC1C(O)=C2C(=O)OC(C)(O)/C=C/C=C\C=C/C=C/C(c3ccccc3)NC(=O)/C=C/C=C/C=C/C=C/C2(C)C1O (stereo not given) | 0.168 µM | 0.125 µM and 0.0222 µM | 0.0166 µM |  | 0.15 µM and 0.168 µM | 0.16 µM and 0.234 µM | 0.141 µM and 0.17 µM | 0.0747 µM and 0.206 µM | 0.112 µM and 0.165 µM | 0.0649 µM and 0.0906 µM | 0.258 µM | 0.113 µM | 0.0303 µM | 0.0264 µM | 0.0329 µM | 0.0296 µM | 0.0307 µM
13 | COc1cc2c(cc1OCCCC(=O)Nc1cc(C(=O)Nc3cc(C(=O)NCCCN(C)C)n(C)n3)n(C)n1)N=CC1CCCN1C2=O (stereo not given) | 26.5 µM | 31.2 µM | 26.3 µM | 32.1 µM | 28.2 µM | 57 µM | 31.6 µM | > 100 µM | 44.1 µM | 30.1 µM | 57.3 µM |  |  |  |  |  | 
14 | COc1ccc(-c2cn3c(n2)sc2cc(C)ccc23)cc1 | 87.4 µM | > 100 µM | 19.6 µM | 23 µM | 42.1 µM | > 100 µM | 58.4 µM | 52.5 µM | 33.7 µM | 88.7 µM | 41.9 µM |  |  |  |  |  | 
15 | CN(C)Cc1cc(N=Nc2ccc(Cl)c(Cl)c2)ccc1O | 27 µM | 25.4 µM | 8.26 µM | 9.44 µM | 15.9 µM | 17.9 µM | 23.5 µM | 31.9 µM | 38.5 µM | 27.8 µM | 19.4 µM |  |  |  |  |  | 
16 | Clc1ccc(-c2nc(-c3ccc(Cl)cc3)[s+]s2)cc1 | > 100 µM | > 100 µM | > 100 µM |  | > 100 µM | > 100 µM | > 100 µM | > 100 µM | > 100 µM | > 100 µM | > 100 µM |  |  |  |  |  | 
17 | COc1ccc(-c2cc(-c3ccc(Nc4ccnc5cc(Cl)ccc45)cc3)nc(N)c2C#N)c2ccccc12 | > 100 µM | > 100 µM | > 100 µM |  | > 100 µM | > 100 µM | > 100 µM | > 100 µM | > 100 µM | > 100 µM | > 100 µM |  |  |  |  |  | 
18 | O=C1/C(=C/c2cccs2)N=C(c2ccccc2)N1C1Nc2cc3c(cc2S1)NC(N1C(=O)/C(=C/c2cccs2)N=C1c1ccccc1)S3 (stereo not given) | 35.1 µM | > 100 µM |  | 39.6 µM | > 100 µM | 33.7 µM | 41 µM | > 100 µM | 31.3 µM |  |  |  |  |  |  |  | 
19 | COC1CCC(OC2CC(C3(C)CCC4(CC(O)C(C)C(C(C)/C=C(\C)C(=O)C(C)CC(C)C(=O)O)O4)O3)OC3(OC(C4OC(O)(CO)C(C)CC4C)CC3C)C2C)OC1C (stereo not given) | 1.26 µM | 2.21 µM | 0.175 µM |  | 16.2 µM | 0.941 µM | 0.549 µM | 1.79 µM | 1.17 µM | 1.55 µM | 0.298 µM |  |  |  |  |  | 
20 | c1ccc(N=NNNc2ccc(-c3nc4ccccc4[nH]3)cc2)cc1 | 76.8 µM | > 100 µM | > 100 µM | 62.1 µM | > 100 µM | > 100 µM | > 100 µM | 68 µM | > 100 µM | 98.1 µM |  |  |  |  |  |  | 
